Test results reported in patent publication US9211310B2, “Use of a Chinese medicine composition in preparing medicaments for treating secondary prevention of myocardial infarction” (TASLY PHARMACEUTICAL GROUP CO., LTD, priority 2010, dated 2015).

Test system: patients after acute myocardial infarction
Assay: Life quality, Seattle Angina Questionnaire (SAQ), same clinical trial
Format: in vivo, human
Conditions: 6 months after treatment
Excerpt: 3508 patients who were in accordance with the diagnostic standards of AMI for 28 days to 2 years and differentiated as Qi deficiency and blood stagnation syndrome by TCM were studied. 0.5 g Chinese medicine composition prepared by the method of EXAMPLE 1 (Coded as QSYQ) was administrated half an hour after meal, 3 times per day.
There were 19 questions in the Seattle angina questionnaire (SAQ), including 5 parts: physical limitation (PL), anginal stability (AS), anginal frequency (AF), treatment satisfaction (TS) and disease perception (DP). After being given necessary explanation by doctors, the questions were answered independently by patients.
They included the overall survival time, angina pectoris score, TCM symptom score and life quality score, where angina pectoris score, TCM symptom score and life quality score were evaluated at randomization, in 1st, 3rd, 6th, 9th, 12th month after treatment and 18th month after follow-up.
All evaluation results of SAQ were described during the period of observation, and Wilcoxon rank sum test was used for inter-group comparison.
The evaluation results in the SAQ were depicted in different observations, and inter-group comparison was tested by Wilcoxon Rank-sum test.

In the case of `CC(=O)Oc1ccccc1C(=O)O` [Control group, aspirine], the “SAQ Question 1-3: Not limited, number of patients” value (FAS) is reported as 1358, the “SAQ Question 1-3: Not limited, percent of patients” value (FAS) is reported as “(77.87%)” and the “SAQ Question 1-3: Other reasons, number of patients” value (FAS) is reported as 11. The “SAQ Question 1-3: Other reasons, percent of patients” value (FAS) was “(0.63%)”, the “SAQ Question 1-3: Severely limited, number of patients” value (FAS) was 4 and the “SAQ Question 1-3: Severely limited, percent of patients” value (FAS) was “(0.23%)”. For the same compound, the “SAQ Question 1-3: Slightly limited, number of patients” value (FAS) was 265, the “SAQ Question 1-3: Slightly limited, percent of patients” value (FAS) was “(15.19%)” and the “SAQ Question 1-4: Mildly limited, number of patients” value (FAS) was 314. For the same compound, the “SAQ Question 1-4: Mildly limited, percent of patients” value (FAS) was “(18.00%)”, the “SAQ Question 1-4: Moderately limited, number of patients” value (FAS) was 97 and the “SAQ Question 1-4: Moderately limited, percent of patients” value (FAS) was “(5.56%)”. The “SAQ Question 1-4: Not limited, number of patients” value (FAS) was 731, the “SAQ Question 1-4: Not limited, percent of patients” value (FAS) was “(41.92%)” and the “SAQ Question 1-4: Other reasons, number of patients” value (FAS) was 13. For the same compound, the “SAQ Question 1-4: Other reasons, percent of patients” value (FAS) was “(0.75%)”, the “SAQ Question 1-4: Severely limited, number of patients” value (FAS) was 29 and the “SAQ Question 1-4: Severely limited, percent of patients” value (FAS) was “(1.66%)”. The “SAQ Question 1-4: Slightly limited, number of patients” value (FAS) was 560, the “SAQ Question 1-4: Slightly limited, percent of patients” value (FAS) was “(32.11%)” and the “SAQ Question 1-5: Mildly limited, number of patients” value (FAS) was 292. For the same compound, the “SAQ Question 1-5: Mildly limited, percent of patients” value (FAS) was “(16.75%)”, the “SAQ Question 1-5: Moderately limited, number of patients” value (FAS) was 137 and the “SAQ Question 1-5: Moderately limited, percent of patients” value (FAS) was “(7.86%)”. The “SAQ Question 1-5: Not limited, number of patients” value (FAS) was 755, the “SAQ Question 1-5: Not limited, percent of patients” value (FAS) was “(43.32%)” and the “SAQ Question 1-5: Other reasons, number of patients” value (FAS) was 13. For the same compound, the “SAQ Question 1-5: Other reasons, percent of patients” value (FAS) was “(0.75%)”, the “SAQ Question 1-5: Severely limited, number of patients” value (FAS) was 20 and the “SAQ Question 1-5: Severely limited, percent of patients” value (FAS) was “(1.15%)”. For the same compound, the “SAQ Question 1-5: Slightly limited, number of patients” value (FAS) was 526, the “SAQ Question 1-5: Slightly limited, percent of patients” value (FAS) was “(30.18%)” and the “SAQ Question 1-9: Mildly limited, % of cases” value (FAS) was “(19.93%)”. For the same compound, the “SAQ Question 1-9: Mildly limited, cases” value (FAS) was 341, the “SAQ Question 1-9: Moderately limited, % of cases” value (FAS) was “(20.86%)” and the “SAQ Question 1-9: Moderately limited, cases” value (FAS) was 357. The “SAQ Question 1-9: Not limited, % of cases” value (FAS) was “(3.39%)”, the “SAQ Question 1-9: Not limited, cases” value (FAS) was 58 and the “SAQ Question 1-9: Other limited, % of cases” value (FAS) was “(6.20%)”. The “SAQ Question 1-9: Other limited, cases” value (FAS) was 106, the “SAQ Question 1-9: Severely limited, % of cases” value (FAS) was “(35.42%)” and the “SAQ Question 1-9: Severely limited, cases” value (FAS) was 606. The “SAQ Question 1-9: Slightly limited, % of cases” value (FAS) was “(14.20%)”, the “SAQ Question 1-9: Slightly limited, cases” value (FAS) was 243 and the “SAQ 2nd question: Clearly increased, % of cases” value (PP) was “(0.21%)”. The “SAQ 2nd question: Clearly increased, cases” value (PP) was 3, the “SAQ 2nd question: Clearly reduced, % of cases” value (PP) was “(24.52%)” and the “SAQ 2nd question: Clearly reduced, cases” value (PP) was 355. The “SAQ 2nd question: Same, % of cases” value (PP) was “(36.46%)”, the “SAQ 2nd question: Same, cases” value (PP) was 528 and the “SAQ 2nd question: Slightly increased, % of cases” value (PP) was “(2.76%)”. The “SAQ 2nd question: Slightly increased, cases” value (PP) was 40, the “SAQ 2nd question: Slightly reduced, % of cases” value (PP) was “(36.05%)” and the “SAQ 2nd question: Slightly reduced, cases” value (PP) was 522. For the same compound, the “SAQ 3rd question: 1-2 times per week, % of cases” value (PP) was “(36.05%)”, the “SAQ 3rd question: 1-2 times per week, cases” value (PP) was 522 and the “SAQ 3rd question: 1-3 times per day, % of cases” value (PP) was “(2.76%)”. For the same compound, the “SAQ 3rd question: 1-3 times per day, cases” value (PP) was 40, the “SAQ 3rd question: <1 time per week, % of cases” value (PP) was “(24.52%)” and the “SAQ 3rd question: <1 time per week, cases” value (PP) was 355. The “SAQ 3rd question: No onset, % of cases” value (PP) was “(0.00%)”, the “SAQ 3rd question: No onset, cases” value (PP) was 0 and the “SAQ 3rd question: ≧3 times per week, % of cases” value (PP) was “(36.46%)”. The “SAQ 3rd question: ≧3 times per week, cases” value (PP) was 528, the “SAQ 3rd question: ≧4 times per day, % of cases” value (PP) was “(0.21%)” and the “SAQ 3rd question: ≧4 times per day, cases” value (PP) was 3. For the same compound, the “SAQ Question 1-3: Mildly limited, number of patients” value (PP) was 65, the “SAQ Question 1-3: Mildly limited, percent of patients” value (PP) was “(4.48%)” and the “SAQ Question 1-3: Moderately limited, number of patients” value (PP) was 14. The “SAQ Question 1-3: Moderately limited, percent of patients” value (PP) was “(0.97%)”, the “SAQ Question 1-3: Not limited, number of patients” value (PP) was 1131 and the “SAQ Question 1-3: Not limited, percent of patients” value (PP) was “(78.00%)”. For the same compound, the “SAQ Question 1-3: Other reasons, number of patients” value (PP) was 9, the “SAQ Question 1-3: Other reasons, percent of patients” value (PP) was “(0.62%)” and the “SAQ Question 1-3: Severely limited, number of patients” value (PP) was 4. For the same compound, the “SAQ Question 1-3: Severely limited, percent of patients” value (PP) was “(0.28%)” and the “SAQ Question 1-3: Slightly limited, number of patients” value (PP) was 227.
